Measured values as given in patent US12552797B2, “Process for making (3-[cyclopropylethoxy(difluoro)methyl]-6-6[5-fluoro-6-(2,2,2-trifluoroethoxy-3-pyridyl]- [1,2,4]triazolo[4,3-a]pyrazine” (Praxis Precision Medicines, Inc., priority 2019, dated 2026).
Converted amounts (≈) assume the structure as drawn. “And” between values parts separate entries of the source, which are not always exact repeats. Identical values can stand only once. Like-named read-outs stand apart in the source and are kept apart here.

Key:
Assay type in all cases: physicochemical
[1] = Particle size distribution (PSD) of Compound 1 before and after manual or jet milling (Sympatec HELOS, dry method)
Experimental: Compound 1 was milled by manual milling or jet milling to reduce particle size. For manual milling, Compound 1 was weighed into a ceramic motor and gentle milled for ˜5 mins. Particle size distribution (PSD) of Compound 1 indicated D90=77.82 μm and D90=28.27 μm before and after manual milling of Compound 1. PSD via dry method was conducted by Sympatec HELOS particle size analyzer, and dispersing system and pressure were RODOS and 0.5 bar, respectively.
For jet milling, Compound 1 was micronized by jet milling with a yield of ˜90%. Particle size of the jet-milled material was reduced to a D90 range of 4.7 to 13.5 μm.

[2] = Solubility of Compound 1 in solution formulation vehicles (visual); conditions: for solubility: organic solvent or mixture, thermodynamic from solid, read-out: maximum solubility (visually determined)
Experimental: 2400 μL PEG 400 was added to a 8 mL glass vial together with 3 mg of Compound 1 and mixed together by Vortex and sonicated for 5 min. Then 600 μL Cremophor RH40 was added to the container, mixed together by Vortex and sonicated for 5 min. Then 3000 μL water was added to the container, mixed together by Vortex and sonicated for 5 min.
About 15 mg compound were weighted to a 8 mL glass container and then 2 mL Prototype 2a was added to the glass container. The contents were mixed together by vortexing and sonication for 5 min.
About 15 mg compound was weighed to an 8 mL glass containers and then 2 mL of Prototype 2b was added to the container and mixed together by vortex and sonicated for 5 min. […] in Prototype 2b with 7.5 mg/mL was not clear. Then another 140 μL of Prototype 2b vehicle was added to the container and mixed together by vortex and sonicated for 5 min.
600 μL PEG 400 was added to a 4 mL glass vial together with 3 mg of Compound 1 and mixed together by Vortex and sonicated for 5 min. Then 150 μL Cremophor RH40 was added to the container and mixed together by Vortex and sonicated for 5 min. Then 750 μL water was added to the container and mixed together by vortexing and sonicated for 5 min.
(§1) Cremophor RH40, Capmul MCM Co, Triethylcitrate and Ethanol were added together on a weight basis to a glass container and mixed together to form a solution mixture. […] Additional Compound 1 was added with vortexing and sonication until Compound 1 was no longer soluble. The resulting maximum solubility was visually determined to be between 25 and 50 mg/mL.
as §1, with “Capryol 90, Labrasol” for “Cremophor RH40, Capmul MCM Co, Triethylcitrate”, “Transcutol HP” for “Ethanol”, “volumetric” for “weight”, “60” for “25”, “80” for “50”

[3] = Kinetic solubility of amorphous solid dispersions (ASD) in FaSSIF
Experimental: Amorphous solid dispersion including Compound 1 was prepared with a mixture of Compound 1 and polymer. Nine ASD formulations were prepared using for screening 9 different polymers as the solid dispersant (PVPK30, PVPVA64, Soluplus, HPMC E5, HPMC ASMG, HPMC ASMF, HPMC ASHG, Eudragit EPO, Eudragit L100). About 10 mg of Compound 1 and 40 mg of corresponding polymer were weighed into 40-mL glass vials, and dissolved in 1 mL of MeOH/DCM (1:1, v/v) to prepare stock solution. […] The product after evaporation was dried under vacuum at 30° C. overnight and further characterized by appearance, PLM, XRPD and mDSC.
The nine ASD formulations were tested for kinetic solubility in FaSSIF at the concentration of 2 mg/mL. The experiment was run at 37° C. with the rate of 450 rpm. 0.5 mL of the mixture was taken out at each time point and centrifuged before running UPLC (a shortened runtime version of the described HPLC method was used to determine the Compound 1 levels).

CCOC(F)(F)c1nnc2cnc(-c3cnc(OCC(F)(F)F)c(F)c3)cn12 [Compound 1, 3-(ethoxydifluoromethyl)-6-(5-fluoro-6-(2,2,2-trifluoroethoxy)pyridin-3-yl)-[1,2,4]triazolo[4,3-a]pyrazine]
D10 ([1]; after jet milling, batch 1): 0.7 μm | D50 ([1]; after jet milling, batch 1): 1.8 μm | D90 ([1]; after jet milling, batch 1): 4.7 μm | D10 ([1]; after jet milling, batch 2): 1.1 μm | D50 ([1]; after jet milling, batch 2): 3.7 μm | D90 ([1]; after jet milling, batch 2): 8.3 μm | D10 ([1]; after jet milling, batch 3): 0.87 μm | D50 ([1]; after jet milling, batch 3): 5.58 μm | D90 ([1]; after jet milling, batch 3): 13.5 μm | D10 ([1]; after manual milling): 0.8 μm | D50 ([1]; after manual milling): 3.6 μm | D90 ([1]; after manual milling): 28.27 μm and 28.3 μm | D10 ([1]; before milling): 1.8 μm | D50 ([1]; before milling): 22.2 μm | D90 ([1]; before milling): 77.82 μm and 77.8 μm | D10 ([1]; before milling, batch 1): 1.8 μm | D50 ([1]; before milling, batch 1): 15.4 μm | D90 ([1]; before milling, batch 1): 80.9 μm | D10 ([1]; before milling, batch 2): 13.2 μm | D50 ([1]; before milling, batch 2): 67.3 μm | D90 ([1]; before milling, batch 2): 162.1 μm | D10 ([1]; before milling, batch 3): 14.6 μm | D50 ([1]; before milling, batch 3): 56.8 μm | D90 ([1]; before milling, batch 3): 104 μm | dissolution in vehicle (visual) ([2]; Prototype 1: 40% PEG 400/10% Cremophor RH40/50% Water, 0.5 mg/mL): dissolved completely | dissolution in vehicle (visual) ([2]; Prototype 2a vehicle, 7.5 mg/mL): clear solution | dissolution in vehicle (visual) ([2]; Prototype 2b vehicle, 7.5 mg/mL): not clear | dissolution in vehicle (visual) ([2]; Prototype 3, 2 mg/mL): dissolved completely | solubility ([2]; Prototype 4 solution formulation vehicle, Prototype 4: 36% Cremophor RH40+45% Capmul MCM C8+9% Triethylcitrate+10% Ethanol): 25000 to 50000 µg/mL (≈ 61400 to 123000 µM) | solubility ([2]; Prototype 5 solution formulation vehicle, Prototype 5: 40 Capryol 90+20% Labrasol+40% Transcutol HP): 60000 to 80000 µg/mL (≈ 147000 to 196000 µM) | solubility kinetic at 15 min ([3]; FaSSIF, thermodynamic from solid, 2 mg/mL, 37° C., 450 rpm, 15 min): 5.7 µg/mL (≈ 14 µM) | solubility kinetic at 30 min ([3]; FaSSIF, thermodynamic from solid, 2 mg/mL, 37° C., 450 rpm, 30 min): 8.1 µg/mL (≈ 19.9 µM) | solubility kinetic at 60 min ([3]; FaSSIF, thermodynamic from solid, 2 mg/mL, 37° C., 450 rpm, 60 min): 7.1 µg/mL (≈ 17.4 µM) | solubility kinetic at 120 min ([3]; FaSSIF, thermodynamic from solid, 2 mg/mL, 37° C., 450 rpm, 120 min): 11.6 µg/mL (≈ 28.5 µM) | Final pH ([3]; kinetic solubility test in FaSSIF): 6.54
